Data published in ChEMBL document CHEMBL3244188, “Antagonists of slow reacting substance of anaphylaxis. Synthesis of a series of chromone-2-carboxylic acids” (J Med Chem, 1977).

test system: Ileum; assay: Antagonism of slow reacting substance of anaphylaxis-induced contraction in guinea pig ileum treated 30 secs before SRS-A challenge; assay type: functional, tissue-based; conditions: Cavia porcellus

Point of comparison: O=C([O-])c1cc(=O)c2cc(CCCCCc3ccccc3)ccc2o1.[Na+], IC50 4.5 µg/mL. Against it:
- C=CCc1ccccc1OCC(O)COc1ccc2c(=O)cc(C(=O)[O-])oc2c1.[Na+] (stereo not drawn) — 2.5-fold lower, 1.8 µg/mL
- O=C([O-])c1cc(=O)c2c(OCCCCCCCOc3ccccc3)cccc2o1.[Na+] — 5.6-fold lower, 0.8 µg/mL
- O=C([O-])c1cc(=O)c2c(OCCCCCCCCCOc3ccccc3)cccc2o1.[Na+] — within 1.5-fold, 6 µg/mL
- O=C([O-])c1cc(=O)c2c(OCCOc3ccccc3)cccc2o1.[Na+] — 22-fold higher, 100 µg/mL
- O=C([O-])c1cc(=O)c2c(OCCCOc3ccccc3)cccc2o1.[Na+] — 7.8-fold higher, 35 µg/mL
- O=C([O-])c1cc(=O)c2c(OCCCCCOc3ccccc3)cccc2o1.[Na+] — 3.9-fold higher, 17.5 µg/mL
- O=C([O-])c1cc(=O)c2cc(OCCCOc3ccccc3)ccc2o1.[Na+] — within 1.5-fold, 3.3 µg/mL
- O=C([O-])c1cc(=O)c2cc(OCCCCCOc3ccccc3)ccc2o1.[Na+] — within 1.5-fold, 3.3 µg/mL
- O=C([O-])c1cc(=O)c2cc(Cc3ccccc3)ccc2o1.[Na+] — within 1.5-fold, 6.6 µg/mL
- O=C([O-])c1cc(=O)c2cc(CCCc3ccccc3)ccc2o1.[Na+] — 1.5-fold lower, 3 µg/mL
- O=C([O-])c1cc(=O)c2ccc(OCCOc3ccccc3)cc2o1.[Na+] — 3.3-fold higher, 15 µg/mL
- O=C([O-])c1cc(=O)c2ccc(OCCCOc3ccccc3)cc2o1.[Na+] — 3.2-fold lower, 1.4 µg/mL
- O=C([O-])c1cc(=O)c2ccc(OCCCCCOc3ccccc3)cc2o1.[Na+] — 11-fold lower, 0.4 µg/mL
- O=C([O-])c1cc(=O)c2ccc(OCCCCCCCOc3ccccc3)cc2o1.[Na+] — 2.5-fold lower, 1.8 µg/mL
- O=C([O-])c1cc(=O)c2ccc(OCCCCCCCCCOc3ccccc3)cc2o1.[Na+] — 2.5-fold lower, 1.8 µg/mL
- O=C([O-])c1cc(=O)c2ccc(OCCCCCSc3ccccc3)cc2o1.[Na+] — 11-fold lower, 0.4 µg/mL
- O=C([O-])c1cc(=O)c2ccc(SCCCCCOc3ccccc3)cc2o1.[Na+] — 15-fold lower, 0.3 µg/mL
- O=C([O-])c1cc(=O)c2ccc(OCCCCCc3ccccc3)cc2o1.[Na+] — 7.5-fold lower, 0.6 µg/mL
- O=C([O-])c1cc(=O)c2cccc(OCCCOc3ccccc3)c2o1.[Na+] — 11-fold higher, 50 µg/mL
- O=C([O-])c1cc(=O)c2cccc(OCCCCCOc3ccccc3)c2o1.[Na+] — 2-fold higher, 9 µg/mL
- C=CCc1ccc(OCCCCCOc2ccc3c(=O)cc(C(=O)[O-])oc3c2)c(C(C)=O)c1O.[Na+] — 5-fold lower, 0.9 µg/mL
- O=C([O-])c1cc(=O)c2ccc(OCCCCCOc3cccc(O)c3)cc2o1.[Na+] — 3-fold lower, 1.5 µg/mL
- O=C([O-])c1cc(=O)c2ccc(OCCCCCOc3cccc(OCc4ccccc4)c3)cc2o1.[Na+] — 4.5-fold lower, 1 µg/mL
- COc1cccc(OCCCCCOc2ccc3c(=O)cc(C(=O)[O-])oc3c2)c1.[Na+] — 3-fold lower, 1.5 µg/mL
- CC(=O)c1ccc(OCCCCCOc2ccc3c(=O)cc(C(=O)[O-])oc3c2)cc1.[Na+] — within 1.5-fold, 3.5 µg/mL
- C=CCc1c(OCCCCCOc2ccc(C(=O)CN)cc2)ccc2c(=O)cc(C(=O)[O-])oc12.[Na+] — within 1.5-fold, 3.9 µg/mL
- C=CCc1c(OCCCCCOc2cccc(O)c2C(C)=O)ccc2c(=O)cc(C(=O)[O-])oc12.[Na+] — 90-fold lower, 0.05 µg/mL
- C=CCc1c(OCCCCCOc2ccc(C(C)=O)cc2)ccc2c(=O)cc(C(=O)[O-])oc12.[Na+] — 1.9-fold lower, 2.4 µg/mL
- C=CCc1c(OCCCCCOc2ccc3c(=O)cc(C(=O)[O-])oc3c2CC=C)ccc(C(C)=O)c1O.[Na+] — 3.7-fold lower, 1.23 µg/mL
- CC(=O)c1ccc(OCCCCCOc2ccc3c(=O)cc(C(=O)[O-])oc3c2)cc1O.[Na+] — 1.5-fold higher, 6.8 µg/mL
- CCCc1ccccc1OCCCOc1ccc2c(=O)cc(C(=O)[O-])oc2c1CCC.[Na+] — 25-fold lower, 0.18 µg/mL
- CCCc1ccccc1OCCCOc1cc2oc(C(=O)[O-])cc(=O)c2cc1CCC.[Na+] — 4-fold higher, 18 µg/mL
- CCCc1c(OCCCOc2ccc3c(=O)cc(C(=O)[O-])oc3c2CCC)ccc(C(C)=O)c1O.[Na+] — 4500-fold lower, 0.001 µg/mL
- O=C([O-])c1cc(=O)c2ccc(OCC(O)COc3ccccc3)cc2o1.[Na+] (stereo not drawn) — 1.6-fold higher, 7 µg/mL
- CC(=O)c1ccc(OCC(O)COc2ccc3c(=O)cc(C(=O)[O-])oc3c2)cc1O.[Na+] (stereo not drawn) — 6.2-fold higher, 28 µg/mL
- C=CCc1c(OCC(O)COc2ccc3c(=O)cc(C(=O)[O-])oc3c2)ccc(C(C)=O)c1O.[Na+] (stereo not drawn) — 45-fold lower, 0.1 µg/mL
- C=CCc1c(OCC(O)COc2ccc(C(C)=O)c(O)c2)ccc2c(=O)cc(C(=O)[O-])oc12.[Na+] (stereo not drawn) — within 1.5-fold, 3.3 µg/mL
- C=CCc1c(OCC(O)COc2ccc3c(=O)cc(C(=O)[O-])oc3c2CC=C)ccc(C(C)=O)c1O.[Na+] (stereo not drawn) — 90-fold lower, 0.05 µg/mL
- CCCc1c(OCC(O)COc2ccc3c(=O)cc(C(=O)[O-])oc3c2)ccc(C(C)=O)c1O.[Na+] (stereo not drawn) — 56-fold lower, 0.08 µg/mL
- CCCc1ccccc1OCC(O)COc1ccc2c(=O)cc(C(=O)[O-])oc2c1.[Na+] (stereo not drawn) — 2.2-fold lower, 2 µg/mL
- CCCc1ccccc1OCC(O)COc1ccc2c(=O)cc(C(=O)[O-])oc2c1CCC.[Na+] (stereo not drawn) — 100-fold lower, 0.044 µg/mL
- CCCc1ccccc1OCC(O)COc1cc2oc(C(=O)[O-])cc(=O)c2cc1CCC.[Na+] (stereo not drawn) — 2.8-fold lower, 1.6 µg/mL
- CCCc1c(OCC(O)COc2ccc3c(=O)cc(C(=O)[O-])oc3c2CCC)ccc(C(C)=O)c1OC.[Na+] (stereo not drawn) — 10-fold higher, 45 µg/mL
- CCCc1cc(C(C)=O)ccc1OCC(O)COc1ccc2c(=O)cc(C(=O)[O-])oc2c1CCC.[Na+] (stereo not drawn) — 30-fold lower, 0.15 µg/mL
- CCCc1c(OCc2ccccc2)cccc1OCC(O)COc1ccc2c(=O)cc(C(=O)[O-])oc2c1CCC.[Na+] (stereo not drawn) — 4.5-fold lower, 1 µg/mL
- CCCc1c(OCC(O)COc2cccc(O)c2C(C)=O)ccc2c(=O)cc(C(=O)[O-])oc12.[Na+] (stereo not drawn) — 15-fold lower, 0.3 µg/mL
- CCCc1c(OCC(O)COc2ccc3c(=O)cc(C(=O)[O-])oc3c2CCC)ccc(C(C)=O)c1O.[Na+] (stereo not drawn) [FPL-55712 SODIUM SALT] — 900-fold lower, 0.005 µg/mL
